The subject of series [1] is COR-L23 parental (COR-L23/P) human non-small cell lung carcinoma cell line. Briefly: Cytotoxicity in COR-L23 parental cells (SRB assay). In kind it is cell-based. The protocol: The cytotoxicity of the compounds described herein was also measured using the COR-L23 parental (COR-L23/P) human non-small cell lung carcinoma cell line and also the drug resistant human non-small cell lung carcinoma cell line COR-L23/R which overexpresses multidrug resistance associated protein (MRP). The cytotoxicity, as measured by the IC50 (concentration required to give 50% cell kill) in the L23/R cell line divided by the cytotoxicity in the L23/P cell line gives an indication of the degree to which a compound may be affected by MRP-dependant MDR and is termed the resistance factor (Rf) of the compound.
(§1) L23/P and L23/R cells were pipetted into 96-well tissue culture plates and then allowed to incubate at 37° C. for 4 h. A range of concentrations from 0.01 nM to 5 μM of compounds of formula (I) or the standards TAS-103, Doxorubicin and Topotecan were then added. The plates were incubated for 5-6 days before proliferation was assessed using the sulphurhodamine B (SRB) assay as described by Skehan et al, J Natl Cancer Inst 1990, 82, pp1107-1112.
In general terms: Sulforhodamine B stains cellular protein and so reports cell mass.

Series [2] concerns H69/LX4 human small cell lung carcinoma cell line which overexpresses P-glycoprotein (Pgp). Briefly: Cytotoxicity in drug resistant H69/LX4 cells (AlamarBlue). The settings on record: for Rf (resistance factor): IC50 in H69/LX4 divided by IC50 in H69/P. The protocol: (§2) The cytotoxicity of compounds of formula (I) was measured using the H69 parental (H69/P) human small cell lung carcinoma cell line and the drug resistant human small cell lung carcinoma cell line H69/LX4 which overexpresses P-glycoprotein (Pgp).
(§3) H69/P and H69/LX4 cells were pipetted into 96-well tissue culture plates and then allowed to incubate at 37° C. for 4 h. A range of concentrations from 0.01 nM to 5 μM of compounds of formula (I) or the standards TAS-103, Doxorubicin and Topotecan were then added. The plates were incubated for 5-6 days before adding AlamarBlue to each well and returning the plates to the incubator for 5-8 h to allow colour development. The cell numbers in the plates at the end of this period were directly proportional to the absorbance measured at a wavelength of 570 nm (reference wavelength 600 nm).
A general note: Resazurin is reduced to fluorescent resorufin, in cell work by metabolically active cells.

Series [3] relates to COR-L23/R human non-small cell lung carcinoma cell line which overexpresses multidrug resistance associated protein (MRP). Briefly: Cytotoxicity in drug resistant COR-L23/R cells (SRB assay). The class given is cell-based. The settings on record: for Rf (resistance factor): IC50 in L23/R divided by IC50 in L23/P; for IC50: L23/R cells (MRP overexpressing), 5-6 days incubation, SRB. On the procedure: (§4) The cytotoxicity of the compounds described herein was also measured using the COR-L23 parental (COR-L23/P) human non-small cell lung carcinoma cell line and also the drug resistant human non-small cell lung carcinoma cell line COR-L23/R which overexpresses multidrug resistance associated protein (MRP).
as §1

Assay in series [4]: as above
The class given is cell-based, human. The settings on record: Homo sapiens, COR-L23/R; L23/R cells (MRP overexpressing), 5-6 days incubation, SRB. On the procedure: as §4, §1

For series [5], the system named is H69 parental (H69/P) human small cell lung carcinoma cell line. Briefly: Cytotoxicity in H69 parental cells (AlamarBlue). The class given is cell-based. The following applies: 5-6 days incubation, concentration required to give 50% cell kill. The protocol:
as §2, §3

The target of series [6] is T1, topoisomerase I (Homo sapiens, UniProt P11387).
T1 sequence (P11387 1-765): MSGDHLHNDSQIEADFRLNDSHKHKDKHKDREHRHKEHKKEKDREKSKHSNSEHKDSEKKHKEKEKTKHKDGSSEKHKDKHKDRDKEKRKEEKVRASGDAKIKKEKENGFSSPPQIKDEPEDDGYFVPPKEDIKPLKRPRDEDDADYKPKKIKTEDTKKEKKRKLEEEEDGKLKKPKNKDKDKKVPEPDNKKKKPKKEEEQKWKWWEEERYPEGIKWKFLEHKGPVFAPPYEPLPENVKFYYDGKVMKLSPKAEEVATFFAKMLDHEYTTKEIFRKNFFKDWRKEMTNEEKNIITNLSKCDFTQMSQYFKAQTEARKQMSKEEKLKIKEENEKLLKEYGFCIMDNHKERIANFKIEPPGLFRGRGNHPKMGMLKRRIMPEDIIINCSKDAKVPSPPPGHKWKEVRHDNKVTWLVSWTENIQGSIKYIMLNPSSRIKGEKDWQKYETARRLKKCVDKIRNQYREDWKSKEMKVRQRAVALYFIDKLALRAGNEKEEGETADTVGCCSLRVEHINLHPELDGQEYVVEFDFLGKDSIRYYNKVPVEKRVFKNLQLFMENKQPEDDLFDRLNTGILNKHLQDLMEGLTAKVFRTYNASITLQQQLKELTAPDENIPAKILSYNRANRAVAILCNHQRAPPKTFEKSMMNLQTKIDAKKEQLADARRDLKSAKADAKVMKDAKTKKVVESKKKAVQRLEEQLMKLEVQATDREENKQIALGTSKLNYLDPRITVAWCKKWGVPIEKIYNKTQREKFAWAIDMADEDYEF
Briefly: Stabilization of cleavable complexes with topoisomerase I. The class given is biochemical. The settings on record: range where an increase in cleavable complexes was observed relative to controls. The source says: (§5) Compounds were also studied for their ability to stabilize cleavable complexes in the presence of either topoisomerase I or II essentially as described previously (Finlay et al, Eur. J. Cancer 32A, 708-714, 1996). Presence of cleavable complexes was indicated by an increase in the number and intensity of bands observed after electrophoresis and autoradiography. The results are expressed as the effective concentration range where an increase in cleavable complexes was observed relative to controls in the absence of drug.

The test system of series [7] is doxorubicin-resistant Jurkat human leukaemia cell line (JLD). In words: Cytotoxicity in doxorubicin-resistant Jurkat cells (JLD). The following applies: for Rf(JLD/JLC): IC50 in JLD divided by IC50 in JLC; for IC50: JLD cells (doxorubicin-resistant). In kind it is cell-based. The protocol: (§6) The cytotoxicity of the compounds described herein was also measured using the Jurkat human leukaemia cell line (JLC) and also the amsacrine-resistant Jurkat human leukaemia cell line (JLA) and the doxorubicin-resistant Jurkat human leukaemia cell line (JLD). The cytotoxicity, as measured by the IC50 (concentration required to give 50% cell kill) in the JLA or JLD cell line divided by the cytotoxicity in the JLC cell line gives an indication of the degree to which a compound may be affected by atypical drug resistance and is termed the resistance factor (Rf) of the compound. The method used has been described previously (Finlay et al, Eur J. Cancer 32A, 708-714, 1996). Compounds were active in the range 1 nM to 5 μM.

Series [8] deals with topoisomerase II. Briefly: Stabilization of cleavable complexes with topoisomerase II. In kind it is biochemical. The following applies: range where an increase in cleavable complexes was observed relative to controls.
From the text: as §5

Series [9] deals with amsacrine-resistant Jurkat human leukaemia cell line (JLA). In words: Cytotoxicity in amsacrine-resistant Jurkat cells (JLA). The following applies: for Rf(JLA/JLC): IC50 in JLA divided by IC50 in JLC; for IC50: JLA cells (amsacrine-resistant). The class given is cell-based. On the procedure: as §6
The subject of series [10] is Jurkat human leukaemia cell line (JLC). In words: Cytotoxicity in Jurkat cells (JLC). In kind it is cell-based. On the procedure:
as §6

Where [11] appears, read: Homo sapiens, COR-L23, 5-6 days incubation.
[12] abbreviates: Homo sapiens, read-out: H69/LX4 IC50.

Read-outs that look alike come from different tables or passages of the source.

In the case of `CC[C@@]1(O)C(=O)OCc2c1cc1n(c2=O)Cc2cc3c(CN(C)C)c(O)ccc3nc2-1` [Topotecan, reference compound], the results for the IC50 in series [1] (setting [11]), in series [2] (setting [12]) and in series [4] were 13.6 nM, 61.5 nM and 20.8 nM, respectively. The “Rf (resistance factor)” value is 3.9 in series [2] and 1.5 in series [3].

As to `CN(C)CCNc1nc2cc(O)ccc2c2c1C(=O)c1ccccc1-2` [TAS-103, reference compound], the IC50 turned out to be 21 nM in [5]; 16.3 nM in [1] (5-6 days incubation); 22 nM in series [2] (read-out: H69/LX4 IC50, H69/LX4 cells (Pgp overexpressing), 5-6 days incubation); 384 nM in [7]; 22 nM in series [3]; 302 nM in series [9]. This compound came in with an IC50 in [10] of 5.4 nM. Further, the “Rf (resistance factor)” value amounted to 1.1 in series [2] and 1.3 in series [3]. Further, the “Effective concentration range, Topoisomerase I” value in series [6] was in the range of 0.3 to 10.0 µM. Moreover, the “Rf(JLD/JLC)” value in series [7] turned out to be 71.1. For the same compound, the “Effective concentration range, Topoisomerase II” value in series [8] was 0.3 to 10.0 µM. Moreover, the “Rf(JLA/JLC)” value in [9] came to 55.9.

For `CN(C)CCNC(=O)c1cccc2nc3ccc4ncccc4c3nc12` [Compound 3, Pyrido[3,2-α]phenazine-11-carboxylic acid (2-dimethylamino-ethyl)-amide], the IC50 in series [5] is 123 nM; in series [1] (5-6 days incubation) it was 48 nM; in series [2] it was 133 nM; in series [7], 52 nM; in series [3], 71 nM; in [9], 235 nM. This compound registered an IC50 in series [10] of 74 nM. Moreover, the “Rf (resistance factor)” value in series [2] was determined as 1.1; in series [3], 1.5. Moreover, the “Rf(JLD/JLC)” value in series [7] amounted to 0.7. For the same compound, the “Rf(JLA/JLC)” value in series [9] is given as 2.8.

Regarding `COc1nccc2c1ccc1nc3cccc(C(=O)N[C@H](C)CN(C)C)c3nc12` [Compound 6, 4-Methoxypyrido[4,3-α]phenazine-11-carboxylic acid (2-dimethylamino-1-(R)-methyl-ethyl)-amide], the IC50 in [5] came out at 24 nM; in series [1] (5-6 days incubation) it was 12 nM; in series [2], 29 nM; in series [7], 9 nM; in series [3], 15 nM; in [9], 7 nM. This compound also registered an IC50 in series [10] of 10 nM. For the same compound, the “Rf (resistance factor)” value is on record as 1.2 in series [2] and 1.3 in series [3]. The “Effective concentration range, Topoisomerase I” value in series [6] fell in the range of 0.1 to 3.0 µM. In addition, in series [7], the “Rf(JLD/JLC)” value came to 0.9. Moreover, the “Effective concentration range, Topoisomerase II” value in [8] is 0.1 to 3.0 µM. In addition, in series [9], the “Rf(JLA/JLC)” value is reported as 0.7.

Take `COc1nccc2c1ccc1nc3cccc(C(=O)N[C@H](CO)CN(C)C)c3nc12` [Compound 9, 4-Methoxypyrido[4,3-α]phenazine-11-carboxylic acid (2-dimethylamino-1-(S)-hydroxymethyl-ethyl)-amide]: the IC50 in series [5] stood at 24 nM; in series [1] (5-6 days incubation) it was 4 nM; in [2], 28 nM; in [3] it was 6 nM. Also, the “Rf (resistance factor)” value in series [2] is listed as 1.2; in series [3], 1.5.

Take `COc1nccc2c1ccc1nc3cccc(C(=O)NCCN(C)C)c3nc12` [Compound 5, 4-Methoxypyrido[4,3-α]phenazine-11-carboxylic acid (2-dimethylamino-ethyl)-amide]: the IC50 was found to be 21 nM in [5]; 14 nM in series [1] (5-6 days incubation); 26 nM in series [2]; 12 nM in [7]; 16 nM in [3]; 12 nM in [9]. The compound also returned an IC50 in [10] of 17 nM. Moreover, the entries for the “Rf (resistance factor)” value in series [2] and in [3] were 1.3 and 1.1, respectively. Also, the “Effective concentration range, Topoisomerase I” value in series [6] was in the range of 0.1 to 3.0 µM. Also, the “Rf(JLD/JLC)” value in [7] was determined as 0.7. Further, in [8], the “Effective concentration range, Topoisomerase II” value was 0.1 to 3.0 µM. Further, the “Rf(JLA/JLC)” value in [9] was 0.7.

Consider `COc1cccc2c1C(=O)c1c(O)c3c(c(O)c1C2=O)C[C@@](O)(C(=O)CO)C[C@@H]3O[C@H]1C[C@H](N)[C@H](O)[C@H](C)O1` [Doxorubicin, reference compound], for which the IC50 in [1] (setting [11]) is 20.3 nM; in series [2] (setting [12]), 3700 nM; in series [7] (Homo sapiens, Jurkat), 109 nM; in series [4] it was 327 nM; in [9] (Homo sapiens, Jurkat), 25.9 nM; in [10] (Homo sapiens, Jurkat), 7 nM. For the same compound, the “Rf (resistance factor)” value was determined as 135 in series [2] and 16.1 in [3]. Further, the “Rf(JLA/JLC)” value in series [9] is recorded as 3.7.

Consider `CN(C)CCNC(=O)c1cccc2nc3ccc4cnccc4c3nc12` [Compound 2, Pyrido[4,3-α]phenazine-11-carboxylic acid (2-dimethylamino-ethyl)-amide], for which the IC50 is 88 nM in series [5]; 22 nM in series [1] (5-6 days incubation); 56 nM in series [2]; 78 nM in series [7]; 56 nM in series [3]; 84 nM in series [9]. Moreover, the IC50 in series [10] turned out to be 28 nM. In addition, the “Rf (resistance factor)” value in series [2] was 0.6; in series [3], 2.5. Besides, the “Rf(JLD/JLC)” value in series [7] stood at 2.8. Moreover, the “Rf(JLA/JLC)” value in series [9] stood at 3.

As for `CN(C)CCNC(=O)c1cccc2nc3ccc4cnn(C)c4c3nc12` [Compound 13, 1-Methyl-1H-pyrazolo[3,4-α]phenazine-10-carboxylic acid (2-dimethylamino-ethyl)-amide], the IC50 in series [5] came out at 109 nM; in [2] it was 97 nM; in [7], 48 nM; in series [9] it was 44 nM; in series [10], 44 nM. Moreover, the “Rf (resistance factor)” value in series [2] came to 0.9. Moreover, the “Rf(JLD/JLC)” value in series [7] is given as 1.1. Moreover, the “Rf(JLA/JLC)” value in series [9] stood at 1.

The values are drawn from patent publication US6552021B2, “Pharmaceutical compounds” (Xenova Limited, priority 2000, dated 2003).
